The values below come from US20140350081A1, “INSECT G-COUPLED RECEPTORS USEFUL AS TARGETS FOR INSECTICIDES AND COMPOUNDS AND REAGENTS IDENTIFIED USING THE SAME” (priority 2011, published 2014).

Where two headings read alike, the source gives them in different places.

Data set [1] deals with T1, Isdop2 (Ixodes scapularis, UniProt A0ACM8DGL0). Nature of the data set: cell-based. As to conditions: read-out: % Inhibition (of response to dopamine), Isdop2 screen.
Data set [2] concerns Ae. aegypti L3 larvae. The settings on record: 400 μM, three independent experiments.
Data set [3] deals with Ae. aegypti L3 larvae. Description: whole plant or invertebrate. As to conditions: Aedes aegypti.
Data set [4] concerns adult Reticulitermes flavipes. Nature of the data set: Termite immersion assay. The settings on record: 100 mM compound (Fipronil 500 μM), immersion, adult termite. The class given is in vivo. The source says:
A series of whole organism bioassays was developed to further evaluate the toxicity of chemistries to a range of agricultural, veterinary and public health pests and non-target insects (Tables 12 and 13). These assays are designed to rapidly explore the biological activity spectrum of chemistries as well as to facilitate initial investigations of the mode of action of insecticidal compounds. Briefly, assays were developed for the German cockroach (Blatella germanica, urban pest), termite (Reticulitermes flavipes; urban pest), lone star tick (Amblyomma americana; veterinary and public health pest), soybean aphid (Aphis glycines, agricultural pest) and honeybee (Apis mellifera; beneficial, non-target insect). The assays were designed to test the toxicity and speed of kill of multiple chemistries on contact. Each of these assays was performed as a single point dose experiment in triplicate using either topical application of compound to the ventral thorax (1 μl of a […] compound solution in 1:1 v:v DMSO:EtOH vehicle; 50-80 μg effective dose depending on compound) as is the case for our cockroach and honeybee assays, or 10 second immersion in a solution of the compound diluted in water or DMSO:[…] The assays were conducted in 24-well plate format with mortality assessment following incubation at 22° C. as described above. Commercial insecticides were incorporated in these assays to provide a positive control and permit initial comparative analyses. Lead chemistries identified in our in vivo screen have been evaluated in the cockroach and termite assays.

The target of the next data set is Isdop1 (Ixodes scapularis, UniProt A0ACM8FJJ0). Nature of the data set: cAMP accumulation in HEK 293 cells transiently expressing Isdop1. It counts as cell-based. As to conditions: 10 μM biogenic amine, 300 nM propranolol, cAMP accumulation, mean±standard error.
Data set [5] concerns the target T1, Isdop2. Description: cAMP accumulation in HEK 293 cells transiently expressing Isdop2. It counts as cell-based. As to conditions: 10 μM biogenic amine, 300 nM propranolol, cAMP accumulation, mean±standard error.
Data set [6] concerns the target T2, AaDOP2 (Aedes aegypti, UniProt H6D5H2). Nature of the data set: LOPAC1280 antagonist screen in HEK-CRELuc-Aadop2 cells. It counts as cell-based.
The target of data set [7] is T2, AaDOP2. Nature of the data set: HTRF cAMP accumulation concentration response assay (Cisbio Dynamic 2). It counts as cell-based. As to conditions: AaDOP2 expressing cells in the presence of dopamine; No Inhibition = <10% inhibition at 3 μM test compound; read-out: IC50 ± S.E.M. (nM), HTRF cAMP assay.
The mark [8] stands for this setting: 0.5 h, read-out: percent mortality 0.5 hr, 400 uM, L3 larvae, value for this scoring time.
Where [9] appears, read: 1 h, read-out: percent mortality 1 hr, 400 uM, L3 larvae, per scoring time.
Setting [10] is: 2 h, read-out: percent mortality 2 hr, 400 uM, L3 larvae, per scoring time.
[11] abbreviates: 3 h, read-out: percent mortality 3 hr, 400 uM, L3 larvae, per scoring time.
[12] abbreviates: 4 h, read-out: percent mortality 4 hr, 400 uM, L3 larvae, per scoring time.
Setting [13] is: 24 h, read-out: percent mortality 24 hr, 400 uM, L3 larvae, per scoring time.
The mark [14] stands for this setting: 48 h, read-out: Toxicity to Aedes aegypti larvae (mortality) 48 hours, 400 μM, L3 larvae, three independent experiments.
Where [15] appears, read: 48 h, read-out: percent mortality 48 hr, 400 uM, L3 larvae, per scoring time.
Setting [16] is: 72 h, read-out: Cumulative % Mortality (72 hrs), 400 uM, L3 larvae.
Setting [17] is: 72 h, read-out: Toxicity to Aedes aegypti larvae (mortality) 72 hours, 400 μM, L3 larvae, three independent experiments.
Where [18] appears, read: 72 h, read-out: percent mortality 72 hr, 400 uM, L3 larvae, per scoring time.

T2 sequence (H6D5H2 entry or part of it): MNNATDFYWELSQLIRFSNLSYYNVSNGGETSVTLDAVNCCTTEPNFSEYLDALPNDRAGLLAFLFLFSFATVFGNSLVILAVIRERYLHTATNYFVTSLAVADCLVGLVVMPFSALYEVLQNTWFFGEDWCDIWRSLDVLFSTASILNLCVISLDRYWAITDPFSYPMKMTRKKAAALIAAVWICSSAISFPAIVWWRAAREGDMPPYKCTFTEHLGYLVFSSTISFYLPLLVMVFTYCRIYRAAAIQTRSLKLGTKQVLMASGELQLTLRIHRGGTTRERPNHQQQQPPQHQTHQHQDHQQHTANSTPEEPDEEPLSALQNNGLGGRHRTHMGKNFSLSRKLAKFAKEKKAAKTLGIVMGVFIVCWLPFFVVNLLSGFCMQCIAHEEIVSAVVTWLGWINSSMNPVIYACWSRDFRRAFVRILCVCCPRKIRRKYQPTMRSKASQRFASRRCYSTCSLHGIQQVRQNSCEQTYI
T1 sequence (A0ACM8DGL0 entry or part of it): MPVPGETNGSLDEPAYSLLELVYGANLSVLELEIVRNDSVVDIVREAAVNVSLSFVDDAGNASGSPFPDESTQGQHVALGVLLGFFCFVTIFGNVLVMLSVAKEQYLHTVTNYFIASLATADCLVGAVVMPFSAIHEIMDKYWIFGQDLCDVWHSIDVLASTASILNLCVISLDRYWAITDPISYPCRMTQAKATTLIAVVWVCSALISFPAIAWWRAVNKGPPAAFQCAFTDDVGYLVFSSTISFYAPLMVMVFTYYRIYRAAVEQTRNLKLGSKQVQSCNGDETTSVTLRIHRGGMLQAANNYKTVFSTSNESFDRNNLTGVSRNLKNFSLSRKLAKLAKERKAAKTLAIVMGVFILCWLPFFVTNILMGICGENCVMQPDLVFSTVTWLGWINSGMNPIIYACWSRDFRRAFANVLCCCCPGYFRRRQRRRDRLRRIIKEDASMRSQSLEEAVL

Turning to `CN1C2CCC1CC(OC(c1ccccc1)c1ccccc1)C2` (stereo not drawn) [Benztropine, (3-endo)-3-(diphenylmethoxy)-8-methyl-8-azabicyclo[3.2.1]octane], on Isdop2 [1], the inhibition at 10 µM was 84%. The “Toxicity to Aedes aegypti larvae (mortality) 24 hours” value (“Toxicity … (mortality) 24 hours” for short) in the data set with Ae. aegypti L3 larvae [2] was 100%. In addition, the mortality at 400 µM in the data set on Ae. aegypti L3 larvae [3] (setting [8]) came to 0%; in the data set on Ae. aegypti L3 larvae [3] (setting [9]) it was 0%; in the data set with Ae. aegypti L3 larvae [3] (setting [10]), 20%; in the data set on Ae. aegypti L3 larvae [3] (setting [11]) it was 0%; with Ae. aegypti L3 larvae [3] (setting [12]), 0%; in the data set with Ae. aegypti L3 larvae [3] (setting [13]) it was 40%. Besides, the mortality at 400 µM amounted to 100% in the data set on Ae. aegypti L3 larvae [3] (setting [14]); 0% in the data set on Ae. aegypti L3 larvae [3] (setting [15]); 100% in the data set on Ae. aegypti L3 larvae [3] (setting [16]); 100% in the data set on Ae. aegypti L3 larvae [3] (setting [17]); 0% in the data set with Ae. aegypti L3 larvae [3] (setting [18]).
`CN(C)CCCN1c2ccccc2CCc2ccc(Cl)cc21` [Clomipramine]: the inhibition at 10 µM at Isdop2 [1] was determined as 84%. The “Toxicity … (mortality) 24 hours” value with Ae. aegypti L3 larvae [2] worked out at 70%. Besides, the mortality at 400 µM in the data set with Ae. aegypti L3 larvae [3] (24 h, read-out: Toxicity to Aedes aegypti larvae (mortality) 24 hours, 400 μM, L3 larvae, three independent experiments) is 70 to 100%; in the data set on Ae. aegypti L3 larvae [3] (setting [14]), 93%; in the data set on Ae. aegypti L3 larvae [3] (setting [17]), 93%.
Consider `N#Cc1nn(-c2c(Cl)cc(C(F)(F)F)cc2Cl)c(N)c1[S+]([O-])C(F)(F)F` (stereo not shown) [Fipronil], for which, in data set [4], the “% Mortality 24 hrs” value was 90%, the “% Mortality 48 hrs” value is reported as 100%, the “% Mortality 72 hrs” value was 100% and the “% Mortality 120 hrs” value was found to be 100%. Moreover, the “% Mortality 240 hrs” value in data set [4] worked out at 100%.
As to `NCCc1c[nH]cn1` [Histamine], the “Stimulatory response (fold-over-basal) Isdop1” value at Isdop1 was 1.02 ± 0.10 fold-over-basal. Besides, on Isdop2 [5], the “Stimulatory response (fold-over-basal) Isdop2” value was found to be 1.55 ± 0.28 fold-over-basal.
Take `CN1CCN(C2=Nc3ccccc3Oc3ccc(Cl)cc32)CC1` [Loxapine, 2-Chloro-11-(4-methylpiperazin-1-yl)dibenzo[b,f][1,4]oxazepine]: the “% of the SCH23390 effect” value on AaDOP2 [6] (10 μM compound, 300 nM dopamine, quadruplicate) stood at 97%. In addition, at AaDOP2 [6] (LOPAC1280 screen hits), the “% inhibition of DA activity (Aedes cell-based assay screen)” value is given as 97%. The inhibition at 10 µM on Isdop2 [1] is 93%. Besides, the “Toxicity … (mortality) 24 hours” value in the data set with Ae. aegypti L3 larvae [2] was determined as 97%. In addition, the mortality at 400 µM was 30% in the data set with Ae. aegypti L3 larvae [3] (setting [8]); 0% with Ae. aegypti L3 larvae [3] (setting [9]); 30% with Ae. aegypti L3 larvae [3] (setting [10]); greater than 70% with Ae. aegypti L3 larvae [3] (3 h, read-out: mortality within three hours, 400 μM, L3 larvae); 0% in the data set with Ae. aegypti L3 larvae [3] (setting [11]); 0% with Ae. aegypti L3 larvae [3] (setting [12]). The mortality at 400 µM with Ae. aegypti L3 larvae [3] (setting [13]) worked out at 0%; in the data set with Ae. aegypti L3 larvae [3] (setting [14]), 100%; with Ae. aegypti L3 larvae [3] (setting [15]) it was 0%; in the data set with Ae. aegypti L3 larvae [3] (setting [16]) it was 100%; with Ae. aegypti L3 larvae [3] (setting [17]) it was 100%; with Ae. aegypti L3 larvae [3] (setting [18]) it was 0%.
`CNCCCN1c2ccccc2CCc2ccc(Cl)cc21` [Norclomipramine]: at AaDOP2 [7], the half-inhibitory concentration (IC50) stood at 670 ± 35 nM. In addition, in the data set on Ae. aegypti L3 larvae [2], the “Toxicity … (mortality) 24 hours” value was found to be 40%, the “Toxicity to Aedes aegypti larvae (mortality) 48 hours” value was 63% and the “Toxicity to Aedes aegypti larvae (mortality) 72 hours” value is 70%.
Regarding `NCCc1c[nH]c2ccc(O)cc12` [Serotonin, 5-hydroxytryptamine], at Isdop1, the “Stimulatory response (fold-over-basal) Isdop1” value turned out to be 1.06 ± 0.08 fold-over-basal. Moreover, the “Stimulatory response (fold-over-basal) Isdop2” value on Isdop2 [5] is on record as 1.52 ± 0.20 fold-over-basal.
For `NCCc1ccc(O)cc1` [Tyramine], in that order: 1.34 ± 0.11 fold-over-basal and 1.27 ± 0.22 fold-over-basal.
